In patent publication US9259443B2, “Compositions and methods for the generation of platelets and methods of use thereof” (The Children's Hospital of Philadelphia, priority 2010, dated 2016):

Key:
NSG mice = assay: Infusion of human platelets or human ex vivo-grown megakaryocytes into NSG mice; format: in vivo, mouse; details: for time of spike of platelets after infusion: NSG mice; for platelets per megakaryocyte: two million large cells
Procedure: FIG. 7A provides a graph of human platelets infused into immune-suppressed NOD/SCID/[…] NSG mice over time. FIG. 7B provides a graph of the percentage of human platelets over time after infusion of fetal liver megakaryocytes into NSG mice. FIG. 7C provides a graph of human platelets over time after infusion of dimethylfasudil (diMF; 5 μM), a Rho/ROCK1 kinase inhibitor, treated human fetal liver megakaryocytes (large cells) into NSG mice. FIG. 7D provides a graph of human platelets over time after infusion of human megakaryocytes (large cell) from CD34+ bone marrow cells into NSG mice. FIG. 7E provides a graph of human platelets over time after infusion of dimethylfasudil (2 μM)-treated human CD34+ bone marrow megakaryocytes (large cell) into NSG mice.
NSG mice (Shultz et al. (2007) Nat. Rev. Immunol., 7:118-130; Shultz et al. (2005) J. Immunol., 174:6477-89) were infused with human platelets. […] When human fetal liver (FL) megakaryocytes were infused into NSG mice, a spike of platelets was observed within 10 hours of infusion (FIG. 7B). Two million large cells infused yielded about 13 platelets per megakaryocyte.
To increase platelet production, dimethylfasudil (diMF), a Rho/ROCK1 kinase inhibitor, was tested for its ability to promote human FL megakaryocyte maturation. […] Further, the infusion of two million large cells yielded only about 6 platelets per megakaryocyte. Next, human-Megs (large) from bone marrow (BM) CD34+ cells were infused into NSG mice. […] Further, the infusion of two million large cells yielded about 70 platelets per megakaryocyte. When BM CD34+ Megs (large) were treated with DiMF (2 μm) and infused into NSG mice, a spike of platelets was observed immediately (FIG. 7E). Further, the infusion of two million large cells yielded only about 4 platelets per megakaryocyte.

hαIIb+ recipient mice = assay: FL cells grown with metalloproteinase (ADAM17) inhibitors, infused into hαIIb+ mice, derived platelet half-life; format: in vivo, mouse
[1] = BM CD34+ Megs (large) treated with DiMF 2 μm
[2] = human FL-megakaryocytes (large) treated with DiMF 5 μm

Cc1cncc2cccc(S(=O)(=O)N3CCCNC[C@@H]3C)c12 [DiMF, dimethylfasudil]
time of spike of platelets after infusion (NSG mice; [1]): immediately
platelets per megakaryocyte (NSG mice; [1]): about 4
time of spike of platelets after infusion (NSG mice; [2]): within about one hour
platelets per megakaryocyte (NSG mice; [2]): about 6

CC(C)C[C@H](CC(=O)NO)C(=O)N[C@@H](Cc1ccc2ccccc2c1)C(=O)N[C@@H](C)C(=O)NCCN [TAP-1]
change in derived platelet half-life (hαIIb+ recipient mice; FL cells grown with TAP-1 10 μM): no change

CNC(=O)[C@H](Cc1c[nH]c2ccccc12)NC(=O)[C@@H](CC(=O)NO)CC(C)C [GM6001]
change in derived platelet half-life (hαIIb+ recipient mice; FL cells grown with GM6001 100 μM): no change
